Experiments:
A549 = experiment: Cytotoxicity, propidium iodide assay, A549; format: cell-based; conditions: Homo sapiens; Lung, A549, 48 hours treatment; read-out: IC50, C1a (A549)
Experimental: (§1) The assay was designed as in the reference, Anticancer Drugs, 2002, 13, 1-8, the disclosure of which is incorporated by reference for the teaching of the assay.
(§2) Cells from cell lines as mentioned in the table given below were seeded at a density of 3000 cells/well in a white opaque 96-well plate. Following incubation at 37° C./5% CO2 for a period of 18-24 hours, the cells were treated with various concentrations (stock solution was prepared in DMSO and subsequent dilutions were made in media as per ATCC guidelines) of the compounds of Example 1-40 was for a period of 48 hours. At the end of treatment, the spent culture medium was discarded, the cells were washed with 1×PBS and 200 μl of 7 μg/ml propidium iodide was added to each well. The plates were frozen at −70° C. for at least 24 hours. For analysis, the plates were brought to RT, allowed to thaw and were read in PoleStar fluorimeter with the fluorescence setting. The percentage of viable cells in the non-treated set of wells was considered to be 100 and the percentage viability following treatment was calculated accordingly. IC50 values were calculated from graphs plotted using these percentages. Table 4 depicts the IC50 values of compounds of Example 1-40 in individual cell lines.
(§3) The abbreviations for the Cell Lines as used in Table 4 are: […]

H460 = experiment: Cytotoxicity, propidium iodide assay, H460; format: cell-based; conditions: Homo sapiens, NCI-H460; Lung, H460, 48 hours treatment; read-out: IC50, C1b (H460)
Experimental: as §1, §2, §3

PC3 = experiment: Cytotoxicity, propidium iodide assay, PC3; format: cell-based; conditions: Homo sapiens, PC-3; Prostate, PC3, 48 hours treatment; read-out: IC50, C2a (PC3)
Experimental: as §1, §2, §3

OVCAR 3 = experiment: Cytotoxicity, propidium iodide assay, OVCAR 3; format: cell-based; conditions: Homo sapiens; Ovarian, OVCAR 3, 48 hours treatment; read-out: IC50, C3b (OVCAR 3)
Experimental: as §1, §2, §3

HCT116 = experiment: Cytotoxicity, propidium iodide assay, HCT116; format: cell-based; conditions: Homo sapiens, HCT-116; Colon, HCT116, 48 hours treatment; read-out: IC50, C4a (HCT116)
Experimental: as §1, §2, §3

U 373 = experiment: Cytotoxicity, propidium iodide assay, U 373; format: cell-based; conditions: Homo sapiens, U373 MG; Glioblastoma, U 373, 48 hours treatment; read-out: IC50, C7a (U 373)
Experimental: as §1, §2, §3

U 87 MG = experiment: Cytotoxicity, propidium iodide assay, U 87 MG; format: cell-based; conditions: Homo sapiens, Glioblastoma, 48 hours treatment, read-out: IC50, C7b (U 87 MG)
Experimental: as §1, §2, §3

IL-6 = experiment: Human monocyte assay, LPS-stimulated IL-6 (ELISA); format: cell-based; conditions: human monocytes, 1 μg/ml LPS, 5 hours
Experimental: (§4) The assay was designed as in the reference, Physiol. Res., 2003, 52, 593-598, the disclosure of which is incorporated by reference for the teaching of the assay.
(§5) Peripheral blood mononuclear cells (hPBMC) were harvested from human blood and suspended in RPMI 1640 culture medium containing 10% FCS, 100 U/mL penicillin and […] streptomycin (assay medium). Monocytes in the hPBMCs were counted using a Coulter Counter following which the cells were resuspended at 2×10^5 monocytes/mL. A cell suspension containing 2×10^4 monocytes was aliquoted per well of a 96-well plate. Subsequently, the hPBMCs were incubated for 4-5 hours at 37° C. under 5% CO2 (During the incubation, the monocytes adhered to the bottom of 96-well plastic culture plate). Following the incubation, the non-adherent lymphocytes were washed with assay medium and the adherent monocytes re-fed with assay medium. After a 48-hour incubation period (37° C., 5% CO2), monocytes were pretreated with various concentrations of compounds of Example 1-40 (prepared in DMSO) or vehicle (0.5% DMSO) for 30 minutes and stimulated with 1 μg/ml LPS (Escherchia coli 0111:B4, Sigma Chemical Co., St. Louis, Mo.). The incubation was continued for 5 hours at 37° C., 5% CO2. Supernatants were harvested, assayed for IL-6 and TNF-α by ELISA as described by the manufacturer (BD Biosciences, USA). Dexamethasone (10 μM) was used as standard for this assay. The 50% inhibitory concentration (IC50) values were calculated by a nonlinear regression method. In all experiments, a parallel plate was run to ascertain the toxicity of compounds of Example 1-40. The toxicity was determined using the MTS assay as described in Am. J. Physiol. Cell Physiol., 2003, 285, C813-C822.

PI3Kα kinase = molecular target: T1, PI3Kα kinase (Homo sapiens, UniProt P42336); experiment: PI3Kα assay (32P incorporation into phosphatidylinositol, TLC densitometry); format: biochemical; conditions: At 100 nM
T1 construct: purchased Millipore, USA
Experimental: The assay was designed as in the reference, Cell, 2006, 125, 733-47 (Supplemental Data), the disclosure of which is incorporated by reference for the teaching of the assay.
The kinase reaction was carried out in a 25 μL volume in a 1.5 mL microcentrifuge tube. The reaction mixture consisted of kinase buffer (10 mM Hepes, pH 7.5, 50 mM MgCl2), 20 ng PI3Kα kinase (Millipore, USA), 12.5 μg phosphatidylinositol (PI), 10 μM ATP and 1 μCi ^32γ P dATP. Compounds of Example 1-40 were added at concentrations (stock solution was prepared in DMSO and subsequent dilutions were made in kinase buffer) as mentioned in the table. The reaction mixture was incubated at 30° C. for 20 minutes and was terminated by adding 1:1 mixture of MeOH and chloroform. The tube contents were mixed on a vortex mixer and centrifuged at 10000 rpm for 2 minutes. 10 μL of the organic (lower) phase was spotted on to a TLC plate (silica, mobile phase: n-propanol and 2 M glacial acetic acid in 65:35 ratio). The plates were dried and exposed to an X-ray film. The bands appearing as a result of ^32γ P incorporation in PI were quantitated using the QuantityOne (BioRad, USA) densitometry program. PI-103 (Calbiochem, USA) was used as a standard.

PI3K α = experiment: PI3K activity assay, cell-based ELISA of AKT (Ser 473) phosphorylation; conditions: Homo sapiens, Ovarian cell line A2780, 20% FCS stimulation
Experimental: The assay was designed as in the reference, Biochemical Journal, 2000, 350, 717-722, the disclosure of which is incorporated by reference for the teaching of the assay.
Seed cells (Ovarian cell line A2780, ATCC) were plated in a 96 well microtitre plate at a density of 50,000 cells/cm^2 in appropriate complete cell culture medium. The cells were allowed to adhere for 18-24 hours. The cells were allowed to starve for 24 hours. The cells were pretreated (in triplicates) with the compounds of Example 1-40 (stock solution was prepared in DMSO and subsequent dilutions were made in kinase buffer) at a concentration of 10 μM for one hour. Then the cells were stimulated with 20% FCS for 30 minutes. A typical assay would consist of a set of unstimulated cells, a set of stimulated cells and a set of cells treated with compounds of Example 1-40 and a set of cells treated with the stimulator. The medium was discarded. The cells were fixed with 100 μL of 3.7% formaldehyde for 15 minutes. The formaldehyde was discarded by inverting the plate and tapping it on a thick tissue paper layer to remove traces. The cells were washed and permeabilized with 200 μL PBS+Triton-X 100 solution (hereafter referred to as PBS-Triton, containing 0.1% triton-X 100 in 1×PBS) three times, incubating the cells each time for 5 minutes. 100 μL blocking solution (10% FCS in PBS-Triton) was added and incubated for 1 hour at 25° C. The blocking solution was discarded and cells were incubated with the primary antibody in PBS-Triton at a dilution of 1:500 for 1 hour at RT (25° C.). [The primary antibody is Phospho-AKT (Ser 473); Cell Signaling; USA, Cat. No. 9271]. The primary antibody solution was discarded and the cells were washed 3 times with PBS-Triton solution and incubated with the HRP-conjugated secondary antibody in PBS-Triton at a dilution of 1:500 for 1 hour at RT (25° C.). The cells were washed 3 times with PBS-Triton followed by two washes with PBS (to remove traces of triton-X 100). The OPD (o-phenylene diamine dihydrochloride) substrate was prepared for detection of the signal by dissolving one tablet set (two tablets) of SigmaFast OPD (Sigma, USA, Cat No. P9187) in 20 mL distilled water. It should be kept protected from light. 100 μL OPD solutions was added to the wells and the plate was incubated in the dark for 3-5 minutes (depending upon the development of the color). The reaction was stopped by adding 50 μL 2 NH2SO4. The absorbance was measured at 490 nm. The values were expressed in the treated samples, in terms of percentage or fold decrease in AKT phosphorylation with respect to the induced sample. PI-103 (Calbiochem, USA) was used as a standard.

A2780 = experiment: Cytotoxicity, propidium iodide assay, A2780; format: cell-based; conditions: Homo sapiens; Ovarian, A2780, 48 hours treatment; read-out: IC50, C3a (A2780)
Experimental: as §1, §2, §3

PANC 1 = experiment: Cytotoxicity, propidium iodide assay, PANC 1; format: cell-based; conditions: Homo sapiens; Pancreatic, PANC 1, 48 hours treatment; read-out: IC50, C5a (PANC 1)
Experimental: as §1, §2, §3

TNF-α = experiment: Human monocyte assay, LPS-stimulated TNF-α (ELISA); format: cell-based; conditions: human monocytes, 1 μg/ml LPS, 5 hours, read-out: TNFα (IC50)
Experimental: as §4, §5

T1 sequence (P42336 whole entry): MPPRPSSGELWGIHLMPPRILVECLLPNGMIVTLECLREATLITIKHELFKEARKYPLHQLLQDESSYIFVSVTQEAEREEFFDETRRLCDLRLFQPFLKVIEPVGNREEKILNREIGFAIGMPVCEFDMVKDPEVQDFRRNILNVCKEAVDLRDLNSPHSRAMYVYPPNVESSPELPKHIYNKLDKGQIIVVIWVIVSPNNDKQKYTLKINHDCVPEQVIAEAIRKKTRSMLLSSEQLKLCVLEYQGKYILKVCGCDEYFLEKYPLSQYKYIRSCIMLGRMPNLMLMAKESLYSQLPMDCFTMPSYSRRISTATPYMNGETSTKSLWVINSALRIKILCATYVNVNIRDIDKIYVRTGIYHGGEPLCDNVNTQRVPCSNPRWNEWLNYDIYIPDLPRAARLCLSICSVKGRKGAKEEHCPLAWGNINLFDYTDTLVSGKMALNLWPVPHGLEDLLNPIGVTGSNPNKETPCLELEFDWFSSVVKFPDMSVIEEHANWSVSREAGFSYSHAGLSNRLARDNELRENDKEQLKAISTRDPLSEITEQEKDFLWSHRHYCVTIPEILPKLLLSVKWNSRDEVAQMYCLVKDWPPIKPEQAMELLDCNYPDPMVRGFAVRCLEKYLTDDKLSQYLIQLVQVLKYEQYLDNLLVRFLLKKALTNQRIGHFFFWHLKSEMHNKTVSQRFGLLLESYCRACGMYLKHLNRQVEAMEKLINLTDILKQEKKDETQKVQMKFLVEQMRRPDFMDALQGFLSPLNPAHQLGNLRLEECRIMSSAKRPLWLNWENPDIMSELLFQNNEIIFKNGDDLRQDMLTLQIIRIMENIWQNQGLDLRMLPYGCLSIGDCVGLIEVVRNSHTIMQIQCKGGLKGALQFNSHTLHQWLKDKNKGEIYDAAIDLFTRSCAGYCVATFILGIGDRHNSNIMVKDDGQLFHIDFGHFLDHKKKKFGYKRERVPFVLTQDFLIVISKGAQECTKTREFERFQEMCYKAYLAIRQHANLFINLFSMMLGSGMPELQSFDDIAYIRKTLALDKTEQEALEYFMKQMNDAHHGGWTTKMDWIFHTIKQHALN
T1 sequence (P27986 whole entry partner): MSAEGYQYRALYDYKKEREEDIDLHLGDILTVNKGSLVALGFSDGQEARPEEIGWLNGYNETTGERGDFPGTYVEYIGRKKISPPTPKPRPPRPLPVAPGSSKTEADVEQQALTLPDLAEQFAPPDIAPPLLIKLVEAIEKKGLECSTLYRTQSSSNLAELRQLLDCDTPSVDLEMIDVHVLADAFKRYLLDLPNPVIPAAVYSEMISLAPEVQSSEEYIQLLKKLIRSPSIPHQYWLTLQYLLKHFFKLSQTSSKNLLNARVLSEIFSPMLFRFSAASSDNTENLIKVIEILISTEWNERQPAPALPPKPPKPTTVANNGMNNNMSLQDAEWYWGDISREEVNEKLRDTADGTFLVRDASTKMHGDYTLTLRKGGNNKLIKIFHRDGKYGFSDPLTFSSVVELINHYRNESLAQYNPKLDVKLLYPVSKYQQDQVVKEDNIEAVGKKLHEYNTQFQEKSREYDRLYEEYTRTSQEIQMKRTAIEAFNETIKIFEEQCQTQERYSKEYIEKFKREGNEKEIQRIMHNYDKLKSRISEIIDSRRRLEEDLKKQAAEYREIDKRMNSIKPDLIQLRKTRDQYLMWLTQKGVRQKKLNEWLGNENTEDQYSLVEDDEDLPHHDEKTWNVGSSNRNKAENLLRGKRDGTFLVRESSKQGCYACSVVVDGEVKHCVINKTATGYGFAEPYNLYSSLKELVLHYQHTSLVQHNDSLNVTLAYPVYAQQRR

IC50 (IL-6) [µM]	inhibition at 0.1 µM (PI3Kα kinase) [%]	IC50 (TNF-α) [µM]	SMILES	IC50 (A549) [µM]	IC50 (H460) [µM]	IC50 (PC3) [µM]	IC50 (OVCAR 3) [µM]	IC50 (HCT116) [µM]	IC50 (U 373) [µM]	IC50 (U 87 MG) [µM]	inhibition at 10 µM (PI3K α) [%]	IC50 (A2780) [µM]	IC50 (PANC 1) [µM]
1 to 10			Cc1ccc([N+](=O)[O-])cc1S(=O)(=O)n1c(=O)n(-c2ccc(C(C)(C)C#N)cc2)c2c3cc(Br)ccc3ncc21 [Example 4, 2-(4-(8-Bromo-3-(2-methyl-5-nitrophenylsulfonyl)-2-oxo-2,3-dihydro-1H-imidazo[4,5-c]quinolin-1-yl)phenyl)-2-methylpropanenitrile]	1 to 3	1 to 3	1 to 3	> 3	> 3	> 3	1 to 3			
			Cc1ccc(S(=O)(=O)n2c(=O)n(-c3ccc(C(C)(C)C#N)cc3)c3c4cc(Br)ccc4ncc32)cc1F [Example 5, 2-(4-(8-Bromo-3-(3-fluoro-4-methylphenylsulfonyl)-2-oxo-2,3-dihydro-1H-imidazo[4,5-c]quinolin-1-yl)phenyl)-2-methylpropanenitrile]	1 to 3	1 to 3	1 to 3	> 3	> 3	> 3	1 to 3			
> 30	> 50		Cc1cc(C)cc(S(=O)(=O)n2c(=O)n(-c3ccc(C(C)(C)C#N)cc3)c3c4cc(Br)ccc4ncc32)c1 [Example 6, 2-(4-(8-Bromo-3-(3,5-dimethylphenylsulfonyl)-2-oxo-2,3-dihydro-1H-imidazo[4,5-c]quinolin-1-yl)phenyl)-2-methylpropanenitrile]	> 3	> 3	1 to 3	> 3	> 3	> 3	> 3	10 to 50		
	10 to 50		CC(C)(C#N)c1ccc(-n2c(=O)n(S(=O)(=O)c3cccc(C(F)(F)F)c3)c3cnc4ccc(Br)cc4c32)cc1 [Example 13, 2-(4-(8-Bromo-2-oxo-3-(3-(trifluoromethyl)phenylsulfonyl)-2,3-dihydro-1H-imidazo[4,5-c]quinolin-1-yl)phenyl)-2-methylpropanenitrile]	> 3	> 3	> 3	> 3	> 3	> 3	> 3			
1 to 10			CC(C)(C#N)c1ccc(-n2c(=O)n(S(=O)(=O)c3cccc(Br)c3)c3cnc4ccc(Br)cc4c32)cc1 [Example 15, 2-(4-(8-Bromo-3-(3-bromophenylsulfonyl)-2-oxo-2,3-dihydro-1H-imidazo[4,5-c]quinolin-1-yl)phenyl)-2-methylpropanenitrile]	> 3				1 to 3				> 3	> 3
> 30	> 50	≤ 1	CC(C)(C#N)c1ccc(-n2c(=O)n(C(=O)Nc3ccccc3Br)c3cnc4ccc(Br)cc4c32)cc1 [Example 33, 8-Bromo-N-(2-bromophenyl)-1-(4-(2-cyanopropan-2-yl)phenyl)-2-oxo-1H-imidazo[4,5-c]quinoline-3(2H)-carboxamide]	1 to 3	1 to 3	> 3	> 3	> 3	> 3	> 3			
	10 to 50		CC(=O)n1c(=O)n(-c2ccc(C(C)(C)C#N)cc2)c2c3cc(Cl)ccc3ncc21 [Example 36, 2-(4-(3-Acetyl-8-chloro-2-oxo-2,3-dihydro-1H-imidazo[4,5-c]quinolin-1-yl)phenyl)-2-methylpropanenitrile]	1 to 3	≤ 1	> 3	> 3	> 3	> 3	> 3			
